Assays:
[1] = target: T1, Human PDGFRβ, cytoplasmic domain (GST-PDGFRβ) (Homo sapiens, UniProt P09619); experiment: Human PDGFRβ biochemical inhibition assay (off-chip Mobility Shift Assay)
T1 construct: made in house
In short: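 GST-tagged cytoplasmic domain (aa 557-1106) from baculovirus was incubated 1 h at room temperature with compound, CSKtide, ATP at Km and Mg²⁺ in HEPES buffer, pH 7.5. Phosphorylated and unphosphorylated peptide were separated by off-chip mobility shift, and the product ratio P/(P+S) gave percent inhibition.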

[2] = target: T2, Human PDGFRα, cytoplasmic domain (GST-PDGFRα) (Homo sapiens, UniProt P16234); experiment: Human PDGFRα biochemical inhibition assay (off-chip Mobility Shift Assay)
T2 construct: made in house
T2 sequence (P16234 550-1089 T674I): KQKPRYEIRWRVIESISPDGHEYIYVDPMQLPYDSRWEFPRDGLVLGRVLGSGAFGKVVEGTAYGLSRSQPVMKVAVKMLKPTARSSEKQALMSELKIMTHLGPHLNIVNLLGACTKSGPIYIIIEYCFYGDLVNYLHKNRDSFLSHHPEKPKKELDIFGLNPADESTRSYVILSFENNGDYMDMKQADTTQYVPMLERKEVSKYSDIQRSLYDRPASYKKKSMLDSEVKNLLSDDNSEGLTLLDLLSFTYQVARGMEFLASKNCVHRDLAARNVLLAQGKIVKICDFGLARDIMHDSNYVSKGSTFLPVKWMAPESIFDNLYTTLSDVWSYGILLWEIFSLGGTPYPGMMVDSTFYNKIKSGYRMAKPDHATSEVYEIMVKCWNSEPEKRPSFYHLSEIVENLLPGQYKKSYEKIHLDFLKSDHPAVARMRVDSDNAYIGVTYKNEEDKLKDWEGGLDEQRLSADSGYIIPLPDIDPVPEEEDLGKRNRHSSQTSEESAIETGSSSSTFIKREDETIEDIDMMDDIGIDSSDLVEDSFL

T1 sequence (P09619 with tags, fused parts or gaps): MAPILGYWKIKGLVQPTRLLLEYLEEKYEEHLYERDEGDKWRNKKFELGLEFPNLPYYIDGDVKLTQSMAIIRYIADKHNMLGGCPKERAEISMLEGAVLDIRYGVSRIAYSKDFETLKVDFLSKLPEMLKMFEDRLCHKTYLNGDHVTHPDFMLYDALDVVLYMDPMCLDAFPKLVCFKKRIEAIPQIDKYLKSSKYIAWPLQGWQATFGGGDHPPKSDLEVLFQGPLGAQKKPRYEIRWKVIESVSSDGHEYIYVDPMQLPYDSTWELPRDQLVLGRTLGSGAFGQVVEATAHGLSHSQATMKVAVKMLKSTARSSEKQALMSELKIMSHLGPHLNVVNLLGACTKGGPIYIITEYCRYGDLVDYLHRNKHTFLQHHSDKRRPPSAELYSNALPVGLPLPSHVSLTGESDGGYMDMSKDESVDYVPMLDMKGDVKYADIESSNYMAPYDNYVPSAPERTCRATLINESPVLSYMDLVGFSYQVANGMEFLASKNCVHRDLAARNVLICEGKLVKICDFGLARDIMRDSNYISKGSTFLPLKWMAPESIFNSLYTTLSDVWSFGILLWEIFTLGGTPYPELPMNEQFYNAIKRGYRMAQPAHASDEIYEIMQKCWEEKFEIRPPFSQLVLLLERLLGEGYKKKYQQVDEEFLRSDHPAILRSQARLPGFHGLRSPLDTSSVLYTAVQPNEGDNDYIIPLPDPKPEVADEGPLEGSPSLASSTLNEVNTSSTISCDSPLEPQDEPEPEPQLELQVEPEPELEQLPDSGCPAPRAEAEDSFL

Row | Compound | IC50 [1] [nM] | IC50 [2] [nM]
1 | CCn1cc2ncc(N[C@@H](C)c3cccc(NC(=O)Nc4cnc(NC)c(C)c4)c3)nc2n1 [Compound 743, (S)-1-(3-(1-((2-ethyl-2H-pyrazolo[3,4-b]pyrazin-6-yl)amino)ethyl)phenyl)-3-(5-methyl-6-(methylamino)pyridin-3-yl)urea] | 300 to 1000 | < 300
2 | [2H]C([2H])([2H])n1ncc2ncc(N[C@@H](C)c3cccc(NC(=O)c4cncc(C)c4)c3)nc21 [Compound 184, (S)-5-methyl-N-(3-(1-((1-(methyl-d3)-1H-pyrazolo[3,4-b]pyrazin-6-yl)amino)ethyl)phenyl)nicotinamide] | < 300 | < 300
3 | CCn1cc2ncc(N[C@@H](C)c3cccc(NC(=O)c4ccc(CN5CCCC5)c(C(F)(F)F)c4)c3)nc2n1 [Compound 425, (S)-N-(3-(1-((2-ethyl-2H-pyrazolo[3,4-b]pyrazin-6-yl)amino)ethyl)phenyl)-4-(pyrrolidin-1-ylmethyl)-3-(trifluoromethyl)benzamide] | < 300 | < 300
4 | CC(C)n1cc(C(=O)Nc2cccc([C@H](C)Nc3cnc4[nH]cc(-c5cnn(C)c5)c4n3)c2)cn1 [Compound 588, (S)-1-isopropyl-N-(3-(1-((7-(1-methyl-1H-pyrazol-4-yl)-5H-pyrrolo[2,3-b]pyrazin-2-yl)amino)ethyl)phenyl)-1H-pyrazole-4-carboxamide] | < 300 | < 300
5 | Cc1c[nH]c2ncc(N[C@@H](C)c3cccc(NC(=O)c4ccc(C5CC5)nc4)c3)nc12 [Compound 558, (S)-6-cyclopropyl-N-(3-(1-((7-methyl-5H-pyrrolo[2,3-b]pyrazin-2-yl)amino)ethyl)phenyl)nicotinamide] | < 300 | < 300
6 | C[C@H](Nc1cnc2cnn(C)c2n1)c1cccc(NC(=O)c2cnn(C(F)F)c2)c1 [Compound 149, (S)-1-(difluoromethyl)-N-(3-(1-((1-methyl-1H-pyrazolo[3,4-b]pyrazin-6-yl)amino)ethyl)phenyl)-1H-pyrazole-4-carboxamide] | < 300 | < 300
7 | C[C@H](Nc1cnc2cnn(C)c2n1)c1cc(NC(=O)c2ccc(OC(F)F)nc2)ccc1F [Compound 202, (S)-6-(difluoromethoxy)-N-(4-fluoro-3-(1-((1-methyl-1H-pyrazolo[3,4-b]pyrazin-6-yl)amino)ethyl)phenyl) nicotinamide] | < 300 | < 300
8 | C[C@H](Nc1cnc2[nH]cc(-c3cnn(C)c3)c2n1)c1cccc(NC(=O)c2ccc(N3CCCC3)nc2)c1 [Compound 585, (S)-N-(3-(1-((7-(1-methyl-1H-pyrazol-4-yl)-5H-pyrrolo[2,3-b]pyrazin-2-yl)amino)ethyl)phenyl)-6-(pyrrolidin-1-yl) nicotinamide] | < 300 | < 300
9 | CCn1cc2ncc(N[C@@H](C)c3cccc(NC(=O)Cc4cc(Cl)ccn4)c3)nc2n1 [Compound 676, (S)-2-(4-chloropyridin-2-yl)-N-(3-(1-((2-ethyl-2H-pyrazolo[3,4-b]pyrazin-6-yl)amino)ethyl)phenyl)acetamide] | ≥ 1000 | 300 to 1000
10 | CCn1cc2ncc(N[C@@H](C)c3cccc(NC(=O)Cc4cc(C)c(Cl)cn4)c3)nc2n1 [Compound 695, (S)-2-(5-chloro-4-methylpyridin-2-yl)-N-(3-(1-((2-ethyl-2H-pyrazolo[3,4-b]pyrazin-6-yl)amino)ethyl)phenyl)acetamide] | 300 to 1000 | < 300

Second part, the compound after the results:

Row | IC50 [1] [nM] | IC50 [2] [nM] | Compound
11 | < 300 | < 300 | CCn1cc2ncc(N[C@@H](C)c3cccc(NC(=O)c4ccc(Cl)c(F)c4)c3)nc2n1 [Compound 347, (S)-4-chloro-N-(3-(1-((2-ethyl-2H-pyrazolo[3,4-b]pyrazin-6-yl)amino)ethyl)phenyl)-3-fluorobenzamide]
12 | < 300 | < 300 | C[C@H](Nc1cnc2cnn(C)c2n1)c1cccc(NC(=O)c2ccc(C3CCC3)nc2)c1 [Compound 123, (S)-6-cyclobutyl-N-(3-(1-((1-methyl-1H-pyrazolo[3,4-b]pyrazin-6-yl)amino)ethyl)phenyl)nicotinamide]
13 | < 300 | < 300 | CCn1cc2ncc(N[C@@H](C)c3cccc(NC(=O)c4ccc(OC(C)C)nc4)c3)nc2n1 [Compound 287, (S)-N-(3-(1-((2-ethyl-2H-pyrazolo[3,4-b]pyrazin-6-yl)amino)ethyl)phenyl)-6-isopropoxynicotinamide]
14 | < 300 | < 300 | CCn1cc2ncc(N[C@@H](C)c3cc(NC(=O)c4cnc(N5CCCC5)c(C)c4)ccc3F)nc2n1 [Compound 336, (S)-N-(3-(1-((2-ethyl-2H-pyrazolo[3,4-b]pyrazin-6-yl)amino)ethyl)-4-fluorophenyl)-5-methyl-6-(pyrrolidin-1-yl) nicotinamide]
15 | < 300 | < 300 | C[C@H](Nc1cnc2[nH]ccc2n1)c1cccc(NC(=O)c2ccc(C3CC3)nc2)c1 [Compound 594, (S)-N-(3-(1-((5H-pyrrolo[2,3-b]pyrazin-2-yl)amino)ethyl)phenyl)-6-cyclopropylnicotinamide]
16 | < 300 | < 300 | COc1cc(C(=O)Nc2cccc([C@H](C)Nc3cnc4cnn(C)c4n3)c2)cnc1OC [Compound 205, (S)-5,6-dimethoxy-N-(3-(1-((1-methyl-1H-pyrazolo[3,4-b]pyrazin-6-yl)amino)ethyl)phenyl)nicotinamide]
17 | < 300 | < 300 | CCn1cc2ncc(N[C@@H](C)c3cccc(NC(=O)c4ccc(CN5CC(F)C5)c(Cl)c4)c3)nc2n1 [Compound 495, (S)-3-chloro-N-(3-(1-((2-ethyl-2H-pyrazolo[3,4-b]pyrazin-6-yl)amino)ethyl)phenyl)-4-((3-fluoroazetidin-1-yl)methyl) benzamide]
18 | < 300 | < 300 | CCn1cc2ncc(N[C@@H](C)c3cccc(NC(=O)c4cnc(N5CCN(C)CC5)c(C(F)(F)F)c4)c3)nc2n1 [Compound 422, (S)-N-(3-(1-((2-ethyl-2H-pyrazolo[3,4-b]pyrazin-6-yl)amino)ethyl)phenyl)-6-(4-methylpiperazin-1-yl)-5-(trifluoromethyl)nicotinamide]
19 | < 300 | < 300 | CCn1cc2ncc(N[C@@H](C)c3cc(NC(=O)c4ccc(CN5CCCC5)c(C)c4)ccc3F)nc2n1 [Compound 470, (S)-N-(3-(1-((2-ethyl-2H-pyrazolo[3,4-b]pyrazin-6-yl)amino)ethyl)-4-fluorophenyl)-3-methyl-4-(pyrrolidin-1-ylmethyl)benzamide]
20 | < 300 | < 300 | Cc1cncc(C(=O)Nc2cccc([C@H](C)Nc3cnc4cnn(-c5ccccc5)c4n3)c2)c1 [Compound 271, (S)-5-methyl-N-(3-(1-((1-phenyl-1H-pyrazolo[3,4-b]pyrazin-6-yl)amino)ethyl)phenyl)nicotinamide]
21 | < 300 | < 300 | Cc1cc(C(=O)Nc2cccc([C@H](C)Nc3cnc4[nH]nc(C)c4n3)c2)cnc1C(F)(F)F [Compound 538, (S)-5-methyl-N-(3-(1-((3-methyl-1H-pyrazolo[3,4-b]pyrazin-5-yl)amino)ethyl)phenyl)-6-(trifluoromethyl) nicotinamide]
22 | < 300 | < 300 | CCNc1ncc(C(=O)Nc2cccc([C@H](C)Nc3cnc4cnn(C)c4n3)c2)cc1C [Compound 194, (S)-6-(ethylamino)-5-methyl-N-(3-(1-((1-methyl-1H-pyrazolo[3,4-b]pyrazin-6-yl)amino)ethyl)phenyl) nicotinamide]

From patent US20230102554A1 (GB002, INC., priority 2019, published 2023)
